Laboratory results from patent US7718640B2, “Methods and pharmaceutical compositions for reliable achievement of acceptable serum testosterone levels” (Bayer-Schering Pharma AG, priority 2003, dated 2010).

Columns and labels:
[1] = Long-term efficacy and safety study of intramuscular TU 1000 mg in hypogonadal men (Example 2); format: in vivo; details: 4 TU doses of 1000 mg i.m. per year (12-week intervals), 4 ml castor oil:benzyl benzoate 1:1.7
Description: The therapeutic efficacy and safety of a formulation containing testosterone undecanoate 1000 mg in a vehicle of 4 ml of a mixture of castor oil and benzyl benzoate in a ratio of 1:1.7 by volume has been investigated in hypogonadal men. The formulation (4 mL, 1000 mg of testosterone undecanoate) was injected intramuscularly to the hypogonadal men according to the following scheme: • initial phase comprising 4 injections of the formulation with intervals of 6 weeks between the injections. • maintenance phase comprising injecting the formulation in intervals of 10 or 12 weeks between injections.
The present study relates to a one-arm study examining the efficacy and safety of long-term intramuscular injection of testosterone undecanoate for the treatment of symptoms of hypogonadism in men. The patients received 4 testosterone undecanoate injections of 1000 mg the first three times of injections with an interval of 6 weeks, the 4th injection and subsequent injections with 12-week intervals.

[2] = Pharmacokinetic profile: total serum testosterone after intramuscular TU in hypogonadal men (Example 3, FIG. 1); format: in vivo
Description: See Example 3 for the injection scheme. […] The filled lines show the continued injection of 1000-mg TU with an interval of 12 weeks between injections.
The pharmacokinetic profile of a formulation containing testosterone undecanoate (TU) 1000 mg in a vehicle of 4 ml of a mixture of castor oil and benzyl benzoate in a ratio of 1:1.7 by volume was tested in hypogonadal men (having testosterone levels in serum of less than 10 nmol/l). An initial phase of two first intramuscularly injections of 1000 mg TU with 6-weeks interval between the two injections, followed by a maintenance phase of subsequent 3 intramuscularly injections of 1000 mg TU separated by an interval of 10 weeks between each of the injections. Then 1000 mg of testosterone undecanoate (TU) was intramuscularly injected every 12 weeks. 5 treatment periods were provided with an interval of 12 weeks between each injection.

[3] = Comparison of initial phases with 6 versus 10 weeks between injections; serum testosterone (total) before each additional injection (Example 4); format: in vivo, men; details: for Mean testosterone level (total) in serum after 1st injection / Mean testosterone level (total) in serum after 2nd injection: 6 men
Description: The pharmacokinetic profile of a formulation containing testosterone undecanoate (TU)1000 mg in a vehicle of 4 ml of a mixture of castor oil and benzyl benzoate in a ratio of 1:1.7 by volume was tested using two different regimens in hypogonadal men.
In regimen A, an initial phase of two first intramuscularly injections of 1000 mg TU with mean of 9.2-weeks (64.4 days) interval between the two injections, followed by a maintenance phase of subsequent intramuscularly injections of 1000 mg TU separated by an interval of a mean of 10.2 weeks ([…]) after second injection.
In regimen B, an initial phase of two first intramuscularly injections of 1000 mg TU with mean of 6.1-weeks (42.5 days) interval between the first two injections, followed by a maintenance phase of subsequent intramuscularly injections of 1000 mg TU separated by an interval of mean of 10.1 weeks (70.5 days) after second injections.
The concentration of testosterone (total) was determined in serum before each additional injection of TU.

In the case of “17β-hydroxyandrost-4-en-3-one undecanoate [TU]”, the “restoration of physiological serum T levels” value [1] is reported as “sufficient to restore physiological serum T levels in all 36 patients over most of the measurement times”, the “minimum testosterone levels (total levels) after 12 weeks” value ([2]; 12 weeks after injection of 1000 mg TU i.m., maintenance phase) is reported as no less than 10 nmol and the “minimum testosterone levels for a treatment period of 14 weeks” value ([2]; 14 weeks, upon extrapolating the serum levels of testosterone, lowest acceptable concentration about 10 nmol) is reported as “The same was shown to apply”. For the same substance, the “serum testosterone levels throughout the entire period between injections” value ([2]; first injection interval 6 weeks, subsequent injections at 10 or 12 week intervals) was 10 to 35 nmol/L, the “maximal and minimal testosterone levels (total levels) in serum” value ([2]; hypogonadal men, 1000 mg TU i.m. in 4 ml castor oil:benzyl benzoate 1:1.7, 2 injections 6 weeks apart, then 3 at 10-week, then 12-week intervals) was “within the physiological acceptable range” and the “accumulation of testosterone over time” value ([2]; same scheme as Example 3, 1000 mg TU i.m.) was “no accumulation of testosterone is seen over time”. For the same substance, the “Mean testosterone level (total) in serum after 1st injection” value ([3]; Regime A, mean 9.2 weeks after 1st injection of 1000 mg TU i.m.) was 7.0 nmol/L, the “Mean testosterone level (total) in serum after 2nd injection” value ([3]; Regime A, mean 10.8 weeks after 2nd injection of 1000 mg TU i.m.) was 8.8 nmol/L and the “Mean testosterone level (total) in serum after 1st injection” value ([3]; Regime B, mean 6.1 weeks after 1st injection of 1000 mg TU i.m.) was 12.2 nmol/L. The “Mean testosterone level (total) in serum after 2nd injection” value ([3]; Regime B, mean 10.1 weeks after 2nd injection of 1000 mg TU i.m.) was 12.5 nmol/L, the “sufficiency of testosterone levels over the entire period up to the following injection” value ([3]; Regimen A: long-term intervals in both initial and maintenance phase) was “do not result in the sufficient levels of testosterone above 10 nmol” and the “testosterone levels over the period between injections” value ([3]; Regimen B: interval in the initial phase decreased to 6 weeks) was “above 10 nmol/l”.
